Consider 9 compounds from ChEMBL document CHEMBL4190383, “Hit discovery of Mycobacterium tuberculosis inosine 5'-monophosphate dehydrogenase, GuaB2, inhibitors” (Bioorg Med Chem Lett, 2018).

The term logP denotes the decadic logarithm of the partition coefficient of the neutral form, usually between octanol and water. In general, inhibition refers to the percentage by which the read-out fell short of the control. In general, MIC90 refers to an inhibitory concentration at the 90% level, which refers to growth in some studies and to a panel of isolates in others. The IC50 is the concentration needed to halve the response being measured. The Ki is a dissociation constant, usually derived from enzyme kinetics or from competition with a known ligand. As a reminder, the MIC is the lowest concentration that inhibits growth of the organism.

Each structure is given as a SMILES string. Values after ≈ are worked out from the molar mass of the structure shown. Active and inactive are the calls of the source. The rule behind the calls is not given here. Where only a bound is given, the exact number is not on record here.

For one data set, the system named is Staphylococcus aureus. Briefly: Growth inhibition of methicillin-resistant Staphylococcus aureus at 32 ug/ml. It counts as functional. Particulars: read-out: GI.
Data set [1] in a line: Octanol/water partition coefficient , logP of the compound. It counts as physicochemical.
In data set [2] the target is Inosine-5'-monophosphate dehydrogenase 2 (Homo sapiens) (UniProt P12268). The data set is described as follows: Inhibition of human IMPDH2 at 10 uM.
Inosine-5'-monophosphate dehydrogenase 2 (Homo sapiens), sequence (P12268 2-514 limits assumed): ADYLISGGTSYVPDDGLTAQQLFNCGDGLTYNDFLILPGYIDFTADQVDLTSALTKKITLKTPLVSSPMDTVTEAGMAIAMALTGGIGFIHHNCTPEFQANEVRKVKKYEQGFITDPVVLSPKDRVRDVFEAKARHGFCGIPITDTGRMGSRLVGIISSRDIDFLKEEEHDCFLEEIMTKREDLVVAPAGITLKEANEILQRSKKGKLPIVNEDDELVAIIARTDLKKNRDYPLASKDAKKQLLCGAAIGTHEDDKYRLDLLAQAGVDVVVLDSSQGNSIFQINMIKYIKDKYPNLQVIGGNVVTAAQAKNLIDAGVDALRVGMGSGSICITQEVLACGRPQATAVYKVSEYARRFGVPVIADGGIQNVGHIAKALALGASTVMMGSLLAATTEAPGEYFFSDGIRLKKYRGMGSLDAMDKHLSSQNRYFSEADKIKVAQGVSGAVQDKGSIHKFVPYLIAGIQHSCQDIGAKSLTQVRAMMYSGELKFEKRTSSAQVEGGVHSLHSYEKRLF
The next data set deals with Acinetobacter baumannii. Briefly: Growth inhibition of Acinetobacter baumannii at 32 ug/ml. The class given is functional. The settings on record: read-out: GI.
Data set [3] has as its system Mycobacterium tuberculosis. Briefly: Antimicrobial activity against Mycobacterium tuberculosis H37Rv by alamar blue assay. The class given is functional. Background: The colour change of resazurin is a common sign of viable cells or microbes.
Data set [4] relates to Mycobacterium tuberculosis. The data set is described as follows: Antimicrobial activity against Mycobacterium tuberculosis H37Rv in presence of 0.08 to 5 ng/ml anhydrotetracycline-induced guaB2 gene silencing by alamar blue assay. The class given is functional, organism-based.
The test system of data set [5] is Mycobacterium tuberculosis. Briefly: Antimicrobial activity against Mycobacterium tuberculosis SRMV2.6 H37Rv by alamar blue assay. It counts as functional.
Another data set concerns Klebsiella pneumoniae. Briefly: Growth inhibition of Klebsiella pneumoniae at 32 ug/ml. It counts as functional. The settings on record: read-out: GI.
Another data set deals with Cryptococcus neoformans. The data set is described as follows: Growth inhibition of Cryptococcus neoformans var. grubii at 32 ug/ml. The class given is functional. The settings on record: read-out: GI.
The subject of another data set is Pseudomonas aeruginosa. Briefly: Growth inhibition of Pseudomonas aeruginosa at 32 ug/ml. Particulars: read-out: GI. It counts as functional.
In the next data set the test system is Candida albicans. Briefly: Growth inhibition of Candida albicans at 32 ug/ml. It counts as functional. Particulars: read-out: GI.
The nature of data set [6]: Inhibition of Mycobacterium tuberculosis GuaB2.
The subject of a further data set is Escherichia coli. Briefly: Growth inhibition of Escherichia coli at 32 ug/ml. The class given is functional. Particulars: read-out: GI.
Data set [7] concerns Mycobacterium tuberculosis. Briefly: Inhibition of Mycobacterium tuberculosis GuaB2 at 50 uM.
A short description of data set [8]: Inhibition of Mycobacterium tuberculosis GuaB2 expressed in Escherichia coli BL21(DE3) using [2-2H]-IMP or [2-1H]-IMP and NAD+ incubated for 2 hrs by 1H NMR method.
The subject of data set [9] is Mycobacterium tuberculosis. The data set is described as follows: Antimicrobial activity against Mycobacterium tuberculosis H37Rv in presence of 0.15 ng/ml anhydrotetracycline-induced guaB2 gene silencing by alamar blue assay. It counts as functional.
In data set [10] the test system is Mycobacterium tuberculosis. The data set is described as follows: Antimicrobial activity against Mycobacterium tuberculosis H37Rv in presence of 0.31 ng/ml anhydrotetracycline-induced guaB2 gene silencing by alamar blue assay. It counts as functional.

Take `COc1c(C)c2c(c(O)c1C/C=C(\C)CCC(=O)O)C(=O)OC2` [MYCOPHENOLIC ACID]: the inhibition of growth at 32 µg/mL came out at 52.4% with Staphylococcus aureus; 19.4% in the data set on Acinetobacter baumannii; 3.78% with Klebsiella pneumoniae; 91.4% in the data set on Cryptococcus neoformans; 18.8% in the data set on Pseudomonas aeruginosa; 96.9% in the data set on Candida albicans. Further, the inhibition of growth at 32 µg/mL in the data set with Escherichia coli amounted to 2.37%. Also, the logP in [1] is 2.68. The inhibition was 99.9% in data set [2] and 83% in data set [7]. The MIC90 in [3] and in data set [5] was 50 µM (≈ 16 µg/mL) throughout. The outcome in [4] was Active. Besides, the IC50 in data set [6] amounted to 27.2 µM.

As for `N#Cc1ccc(Cn2nncc2COc2cccc3ccccc23)cc1`, the inhibition is 14.8% in data set [2] and 43.5% in data set [7]. Also, the MIC90 in data set [3] is 100 µM (≈ 34 µg/mL); in data set [5], greater than 100 µM. In data set [6], this compound registered an IC50 of 175 µM.

Consider `COc1cccc(Cn2nncc2COc2ccc(-c3nnc(C)o3)cc2)c1`, for which the inhibition of growth at 32 µg/mL in the data set on Staphylococcus aureus was 5.5%; with Acinetobacter baumannii it was -15.3%; with Klebsiella pneumoniae it was -4.35%; in the data set on Cryptococcus neoformans, -59.4%; in the data set on Pseudomonas aeruginosa, 1.44%; in the data set on Candida albicans, 3.07%. The inhibition of growth at 32 µg/mL in the data set with Escherichia coli was -7.43%. Further, the inhibition amounted to 0.1% in [2] and 35% in data set [7]. Besides, the MIC90 in data set [3] is 50 µM (≈ 18.9 µg/mL); in data set [5], 100 µM (≈ 37.7 µg/mL).

In data set [8], `O=C(Cn1c(-c2cscn2)nc2ccccc21)c1ccc(Br)cc1` had a Ki of 0.55 µM.

For the compound `Cc1nnc(-c2ccc(OCc3cnnn3Cc3cccc(Cl)c3)cc2)o1`, the inhibition of growth at 32 µg/mL in the data set on Staphylococcus aureus is 10.3%; in the data set with Acinetobacter baumannii, -12.1%; in the data set on Klebsiella pneumoniae, 2.15%; in the data set with Cryptococcus neoformans, -76.2%; in the data set with Pseudomonas aeruginosa it was 5.84%; in the data set with Candida albicans, -0.27%. The inhibition of growth at 32 µg/mL with Escherichia coli was -5.62%. In [2], this compound yielded an inhibition of 0.1%. The figures for the MIC90 in data set [3] and in data set [5] were 50 µM (≈ 19.1 µg/mL) and greater than 100 µM, respectively. Moreover, the inhibition result in data set [7] is “inactive”.

Regarding `O=C(Cc1ccc(F)c2ccccc12)Nc1ccc2c(c1)COC2=O`, the inhibition of growth at 32 µg/mL in the data set with Staphylococcus aureus was 2.37%; in the data set with Acinetobacter baumannii, -2.02%; in the data set with Klebsiella pneumoniae, 13.4%; in the data set on Cryptococcus neoformans, -49.8%; in the data set on Pseudomonas aeruginosa, -3.45%; in the data set with Candida albicans, 5.47%. Also, the inhibition of growth at 32 µg/mL in the data set on Escherichia coli is -4.49%. In data set [1], the logP was in the range of 2.5 to 3.5. In addition, the inhibition in data set [2] stood at 0.1%; in data set [7], 99.9%. For the same compound, the MIC90 in [3] and in [5] was 100 µM (≈ 33.5 µg/mL) each time. Also, the outcome in [4] was Active. The MIC in data set [9] and in [10] was 12.5 µM in each case. Besides, half-maximal inhibition in data set [6] (IC50) was put at 3.04 µM.

For `Cc1nnc(-c2ccc(OCc3cnnn3Cc3ccccc3F)cc2)o1`, the inhibition of growth at 32 µg/mL in the data set with Staphylococcus aureus is 7.55%; in the data set on Acinetobacter baumannii it was -8.76%; in the data set with Klebsiella pneumoniae it was -2.49%; in the data set with Cryptococcus neoformans, -88.2%; in the data set with Pseudomonas aeruginosa it was 0.96%; in the data set on Candida albicans, 2.24%. The inhibition of growth at 32 µg/mL in the data set on Escherichia coli is -5.41%. Moreover, the logP in data set [1] lay within 2.5 to 3.5. For the same compound, the results for the inhibition in [2] and in data set [7] were 0.1% and 71%, respectively. For the same compound, the MIC90 in data set [3] is 100 µM (≈ 36.5 µg/mL); in data set [5], greater than 100 µM.

In the case of `Cc1nnc(-c2ccc(OCc3cnnn3Cc3ccc(-c4ccccc4)cc3)cc2)o1`, the inhibition of growth at 32 µg/mL in the data set on Staphylococcus aureus is 14%; with Acinetobacter baumannii, -14.1%; in the data set with Klebsiella pneumoniae, 2.97%; with Cryptococcus neoformans it was -70.2%; with Pseudomonas aeruginosa it was 7.93%; in the data set with Candida albicans, -0.24%. Besides, the inhibition of growth at 32 µg/mL in the data set with Escherichia coli was -7.2%. The same compound returned a logP in data set [1] greater than 4.5. Also, the inhibition in [2] was found to be 0.1%; in [7], 72.6%. The MIC90 in data set [3] and in data set [5] was 100 µM (≈ 42.3 µg/mL) each time.

Turning to `CC(C(=O)Nc1ccc2c(c1)COC2=O)c1ccc(C(=O)c2ccccc2)cc1` (stereo unspecified), the inhibition of growth at 32 µg/mL is 25.2% in the data set with Staphylococcus aureus; 1.89% with Acinetobacter baumannii; 15.6% with Klebsiella pneumoniae; -94.7% with Cryptococcus neoformans; 3.08% in the data set with Pseudomonas aeruginosa; 5.25% in the data set on Candida albicans. Further, the inhibition of growth at 32 µg/mL in the data set with Escherichia coli is -2.97%. For the same compound, in data set [1], the logP turned out to be 3.67. The inhibition in [2] stood at 23%; in data set [7], 95.2%. The MIC90 in data set [3] and in data set [5] was 100 µM (≈ 38.5 µg/mL) in each case. Also, in data set [4], the result was Active. In addition, in [6], the IC50 is 6.2 µM.
